{
  "source": "patent US20080241919A1",
  "about": "“Defined media for pluripotent stem cell culture” (The Burnham Institute of Medical Research, priority 2003, published 2008)",
  "key": {"[1]": {"test_system": "human embryonic stem cells (hESCs)", "test": "Undifferentiated growth of hESCs on human foreskin fibroblast (HFF) feeder layer", "assay_type": "cell-based", "protocol": "Next, in order to establish a culture system that was free of non-human animal products, the human foreskin fibroblast (HFF) cell line Hs27 was used as a feeder layer. The human foreskin fibroblast (HFF) cell line, Hs27 (ATCC; Manassas, Va.; www.atcc.org) was expanded to create a master bank of frozen cells. The HFFs were plated in gelatin pre-coated 60 mm plates or 6-well plates at a density of 1.7×10^4/cm^2 and inactivated by irradiating at 50 Gy using a ^137Cs gamma-irradiator before being used as feeder cells. Undifferentiated hESCs, although originally maintained on MEFs, were transferred to plates of HFFs that had been mitotically inactivated by gamma irradiation. In the first attempts to transfer the hESCs to the human feeder layers, far more differentiated cells compared to those grown on MEFs were observed. When dealing with hESCs, the undifferentiated state was assessed by three criteria: (a) distinctive and defining stage-specific morphology and size; (b) the expression of immunomarkers associated with pluripotency; and (c) the absence of immunomarkers associated with lineage commitment.\nIn this media, less than 80% undifferentiated hESC colonies were observed on HFF feeders on every passage."}, "[2]": {"test_system": "acetylated histone H3 and H4, Myc, Tip60 HAT, p300 HAT", "test": "Chromatin state immunofluorescence (acetylated H3/H4, Myc, Tip60, p300) in hESCs", "assay_type": "cell-based, human", "conditions": "named factor omitted from the media", "excerpt": "(c) Presence of both bFGF and insulin is essential for maintenance of an acetylated transcriptionally active chromatin state in undifferentiated hESCs. When either bFGF or insulin is omitted from the media, the differentiated hESC colonies express the differentiation-associated cell surface marker SSEA-1 [B, C] […] (green), Myc [E, F] (red), and histone acetyltransferase (HAT) Tip60 [I, K] (green) and p300 [J, K] […] All cells are indicated by DAPI staining of their nuclei (blue).\nTo discover the minimal essential conditions needed to support the long-term growth of undifferentiated hESCs, morphological analysis was used to assess the developmental stage of hESCs at different times. For these analyses hESCs were grown in a 6- or 12-well plate to maturation (day 6 or 7 after seeding) before being fixed and visualized under a phase contrast microscope. Cellular immunofluorescence was also employed to assess the state of differentiation of hESCs. […] The state of differentiation of hESC was further assessed by generating (via lentiviral-mediated transduction) hESCs carrying a reporter gene (enhanced green fluorescence protein (EGFP)) under control of the Oct-4 promoter. Using these transfected hESCs (carrying Oct-4 driven EGFP), the undifferentiated state of hESCs can be visualized by green fluorescence (indicating Oct-4 expression). […]"}},
  "data": [
    {"substance": "bFGF: basic fibroblast growth factor, growth factor added to the defined hESC media", "values": [
      {"measurement": "size of hESC colonies on HFFs", "setting": "[1]; bFGF increased to 20 ng/ml from 4 ng/ml", "value": "significantly larger"},
      {"measurement": "number of passages undifferentiated hESCs maintained on HFF feeder layers", "setting": "[1]; medium with bFGF 20 ng/ml", "value": "more than 50 passages"},
      {"measurement": "time undifferentiated hESCs maintained on HFF feeder layers", "setting": "[1]; medium with bFGF 20 ng/ml", "value": "over 12 months"},
      {"measurement": "undifferentiated hESC colonies on HFF feeders on every passage", "setting": "[1]; medium with bFGF 20 ng/ml, 20% knockout Serum Replacement", "value": "less than 80%"},
      {"measurement": "immunoreactivity to acetylated H3 and H4, Myc, Tip60 HAT, nuclear focal localization of p300 HAT", "setting": "[2]", "value": "undetectable or weak immunoreactivity"}
    ]}
  ]
}
